Measured values from ChEMBL document CHEMBL5550168, “Structure-based design of multitargeting ChEs-MAO B inhibitors based on phenyl ring bioisosteres: AChE/BChE selectivity switch and drug-like characterization” (Eur J Med Chem, 2024).

experiment: Chromatographic hydrophobicity index of compound at pH 10.5 by reversed-phase HPLC analysis; format: ADME; settings: not given

| Compound | CHI |
| --- | --- |
| CN(Cc1ccccc1)Cc1ccc(COc2ccc3c(CO)cc(=O)oc3c2)cc1 | 102.1 |
| CN(CCc1cccs1)Cc1ccc(COc2ccc3c(CO)cc(=O)oc3c2)cc1 | 97.8 |
| CN(Cc1ccc(COc2ccc3c(CO)cc(=O)oc3c2)cc1)Cc1cncnc1 | 61.4 |
| CN(Cc1ccc(COc2ccc3c(CO)cc(=O)oc3c2)cc1)Cc1cccnc1 | 70.9 |
| CN(Cc1ccc(COc2ccc3c(CO)cc(=O)oc3c2)cc1)Cc1ccco1 | 85.1 |
| CN(CCc1ccsc1)Cc1ccc(COc2ccc3c(CO)cc(=O)oc3c2)cc1 | 95.2 |
| CN(Cc1ccncc1)Cc1ccc(COc2ccc3c(CO)cc(=O)oc3c2)cc1 | 72 |
| CN(CCc1cccnc1)Cc1ccc(COc2ccc3c(CO)cc(=O)oc3c2)cc1 | 69.3 |
| CN(Cc1ccc(COc2ccc3c(CO)cc(=O)oc3c2)cc1)Cc1nccs1 | 76.1 |
| CN(Cc1ccc(COc2ccc3c(CO)cc(=O)oc3c2)cc1)Cc1ccsc1 | 95 |
| CN(Cc1ccc(COc2ccc3c(CO)cc(=O)oc3c2)cc1)Cc1cscn1 | 69.9 |
| CN(Cc1ccc(COc2ccc3c(CO)cc(=O)oc3c2)cc1)Cc1cccs1 | 98 |
| CN(Cc1ccc(COc2ccc3c(CO)cc(=O)oc3c2)cc1)Cc1ncc[nH]1 | 50.7 |

experiment: in vitro; settings: mouse

| Compound | Papp at 2 h, 20 µM [×10⁻⁶ cm/s] |
| --- | --- |
| CN(CCc1ccsc1)Cc1ccc(COc2ccc3c(CO)cc(=O)oc3c2)cc1 | 5.9 |
| CN(Cc1ccc(COc2ccc3c(CO)cc(=O)oc3c2)cc1)Cc1ccsc1 | 8 |

experiment: Chromatographic hydrophobicity index of compound at pH 7.4 by reversed-phase HPLC analysis; format: ADME; settings: not given

| Compound | CHI |
| --- | --- |
| CN(Cc1ccccc1)Cc1ccc(COc2ccc3c(CO)cc(=O)oc3c2)cc1 | 98 |
| CN(CCc1cccs1)Cc1ccc(COc2ccc3c(CO)cc(=O)oc3c2)cc1 | 92.9 |
| CN(Cc1ccc(COc2ccc3c(CO)cc(=O)oc3c2)cc1)Cc1cncnc1 | 62.6 |
| CN(Cc1ccc(COc2ccc3c(CO)cc(=O)oc3c2)cc1)Cc1cccnc1 | 70.6 |
| CN(Cc1ccc(COc2ccc3c(CO)cc(=O)oc3c2)cc1)Cc1ccco1 | 83.5 |
| CN(CCc1ccsc1)Cc1ccc(COc2ccc3c(CO)cc(=O)oc3c2)cc1 | 85.5 |
| CN(CCc1cccnc1)Cc1ccc(COc2ccc3c(CO)cc(=O)oc3c2)cc1 | 65.3 |
| CN(Cc1ccc(COc2ccc3c(CO)cc(=O)oc3c2)cc1)Cc1nccs1 | 76.7 |
| CN(Cc1ccc(COc2ccc3c(CO)cc(=O)oc3c2)cc1)Cc1ccsc1 | 90.3 |
| CN(Cc1ccc(COc2ccc3c(CO)cc(=O)oc3c2)cc1)Cc1cscn1 | 68.3 |
| CN(Cc1ccc(COc2ccc3c(CO)cc(=O)oc3c2)cc1)Cc1cccs1 | 96.5 |
| CN(Cc1ccc(COc2ccc3c(CO)cc(=O)oc3c2)cc1)Cc1ncc[nH]1 | 51.6 |

experiment: Metabolic stability in mouse liver microsomes assessed as half life at 0.5 uM measured upto 30 mins in presence of NADPH by LC-MS/MS analysis; format: ADME, Microsome; settings: not given

| Compound | half-life at 0.5 µM [min] |
| --- | --- |
| CN(CCc1ccsc1)Cc1ccc(COc2ccc3c(CO)cc(=O)oc3c2)cc1 | 13.5 |
| CN(CCc1cccnc1)Cc1ccc(COc2ccc3c(CO)cc(=O)oc3c2)cc1 | 5.97 |
| CN(Cc1ccc(COc2ccc3c(CO)cc(=O)oc3c2)cc1)Cc1ccsc1 | 22.7 |

experiment: Permeability of the compound assessed as membrane retention; format: ADME; settings: not given

| Compound | R% |
| --- | --- |
| CN(Cc1ccc(COc2ccc3c(CO)cc(=O)oc3c2)cc1)Cc1ncc[nH]1 | ~ 50% |

experiment: Metabolic stability in mouse liver microsomes assessed as intrinsic clearance at 0.5 uM measured upto 30 mins in presence of NADPH by LC-MS/MS analysis; format: ADME, Microsome; settings: read-out: CLH

| Compound | microsomal CLint at 0.5 µM [µL/min/mg] |
| --- | --- |
| CN(CCc1ccsc1)Cc1ccc(COc2ccc3c(CO)cc(=O)oc3c2)cc1 | 103 |
| CN(CCc1cccnc1)Cc1ccc(COc2ccc3c(CO)cc(=O)oc3c2)cc1 | 233 |
| CN(Cc1ccc(COc2ccc3c(CO)cc(=O)oc3c2)cc1)Cc1ccsc1 | 61.2 |

experiment: Chromatographic hydrophobicity index of compound at pH 2.0 by reversed-phase HPLC analysis; format: ADME; settings: not given

| Compound | CHI |
| --- | --- |
| CN(Cc1ccccc1)Cc1ccc(COc2ccc3c(CO)cc(=O)oc3c2)cc1 | 53 |
| CN(CCc1cccs1)Cc1ccc(COc2ccc3c(CO)cc(=O)oc3c2)cc1 | 53.7 |
| CN(Cc1ccc(COc2ccc3c(CO)cc(=O)oc3c2)cc1)Cc1cncnc1 | 35.9 |
| CN(Cc1ccc(COc2ccc3c(CO)cc(=O)oc3c2)cc1)Cc1cccnc1 | 32.9 |
| CN(Cc1ccc(COc2ccc3c(CO)cc(=O)oc3c2)cc1)Cc1ccco1 | 47.2 |
| CN(CCc1ccsc1)Cc1ccc(COc2ccc3c(CO)cc(=O)oc3c2)cc1 | 54.3 |
| CN(Cc1ccncc1)Cc1ccc(COc2ccc3c(CO)cc(=O)oc3c2)cc1 | 32.3 |
| CN(CCc1cccnc1)Cc1ccc(COc2ccc3c(CO)cc(=O)oc3c2)cc1 | 29.9 |
| CN(Cc1ccc(COc2ccc3c(CO)cc(=O)oc3c2)cc1)Cc1nccs1 | 42.7 |
| CN(Cc1ccc(COc2ccc3c(CO)cc(=O)oc3c2)cc1)Cc1ccsc1 | 50.7 |
| CN(Cc1ccc(COc2ccc3c(CO)cc(=O)oc3c2)cc1)Cc1cscn1 | 42.2 |
| CN(Cc1ccc(COc2ccc3c(CO)cc(=O)oc3c2)cc1)Cc1cccs1 | 50.4 |
| CN(Cc1ccc(COc2ccc3c(CO)cc(=O)oc3c2)cc1)Cc1ncc[nH]1 | 34.6 |
